# Several values for one entry are separate records, joined by “and”; a condition that tells them apart may be missing. Equal entries are not always repeated.
# Legend:
# farm ants = experiment: Repellent effect on farm ants (treated filter paper); type: in vivo; conditions: for repellency: in words
# Protocol: Adult insect are randomly selected for testing the repellent effect of compositions and are not individually marked. About 5 insects per replicate are used. About 3 replicates are used for each treatment. Untreated control tests are included with only solvent (acetone) application to an equal sized population/replications, held under identical conditions. A filter paper (about 80 cm^2) is treated with the composition (about 100 mg in […] acetone). After about 3 min of air drying, the filter paper is placed in a dish and repellency against insects is performed. Insects are released to the dish, one insect at a time at the far end of the dish. Using one or more stopwatches, the time spent on either the filter paper or the untreated surface of the dish is recorded up to about 300 seconds. Repellency ratio (RR) is calculated as follows: RR=[(time on control surface−time on treated surface)/total time of test].
# The repellent effect of various plant essential oils is tested by treating a filter paper with the test oils. After about five minutes at room temperature, the paper is placed in a dish and ants are introduced one at a time. […] Oils are tested alone. Additionally, oils are mixed to form compositions, which are then tested.
# Or43a receptor = target: T1, Or43a receptor (Drosophila melanogaster, UniProt P81917, L154V); experiment: Intracellular Ca^2+ mobilization in Schneider cells expressing Or43a receptor; type: cell-based; conditions: before vs approximately 150 seconds after treatment
# T1 construct: His (from vector pAc5.1/V5-His B) (C); expressed in transfected cells
# Protocol: Intracellular calcium ion concentrations ([Ca^2+]i) are measured by using the acetoxymethyl (AM) ester of the fluorescent indicator fura-2 (Enan, et al., Biochem. Pharmacol vol 51, 447-454). In this study, cells expressing tyramine receptor are grown under standard conditions. A cell suspension is prepared in assay buffer (140 mM NaCL, 10 mM HEPES, 10 mM glucose, 5 mM KCl, 1 mM CaCl2, 1 mM MgCl2) and cell number adjusted to about 2×10^6 cells per ml. Briefly, about 1.0 ml cell suspension (about 2×10^6 cells) is incubated with about 5 μM Fura 2/AM for about 30 min at about 28° C. After incubation, the cells are pelleted at about 3700 rpm for about 10 sec at room temperature and then resuspended in about 1.5 ml assay buffer. [Ca^2+]i changes are analyzed in spectrofluorometer in the presence and absence of test chemicals. Excitation wave lengths are about 340 nm (generated by Ca^2+-bound fura-2) and about 380 nm (corresponding to Ca^2+-free fura-2). The fluorescence intensity is monitored at an emission wave length of about 510 nm. No absorbance of fluorescence artifacts are observed with any of the compounds used. The ratio of about 340/380 nm is calculated and plotted as a function of time.
# Intracellular Ca^2+ levels are measured using the method described above in Example 3.
# Changes in intracellular Ca^2+ levels are calculated based on the difference between the 340/380 fluorescence ratios before and after approximately 150 seconds of the treatment.
# [1] = test system: Or83b and Or43a receptors; experiment: Interaction of plant essential oils with olfactory receptor binding site (membranes, ^3H-tyramine); set-up: species or system Drosophila melanogaster; conditions: membranes incubated with ^3H-tyramine
# Protocol: (§1) The cells expressing one of the olfactory receptors are used to investigate the interaction of plant essential oils with these receptors and the signaling cascade downstream of each receptor.
# (§2) For the binding activity, membranes are prepared from each cell model and used to investigate the interaction of plant essential oil with the receptor binding site.
# [2] = test system: Drosophila melanogaster Or83b olfactory receptor, SEQ ID NO: 6; experiment: Interaction of plant essential oils with Or83b receptor binding site (3H-tyramine); conditions: membranes, FIGS. 16, 18-21
# Protocol: (§3) Total RNA is prepared from the head and antenna of wild type Drosophila melanogaster using Trizol Reagent (Invitrogen). They are homogenized in the Trizol using a motor driven teflon pestle and glass homogenizer. RNA is then prepared as per the manufacturer's instructions and includes removal of proteoglycans and polysaccharides by precipitation. The total RNA is reverse transcribed using oligo-dT as a primer and MuLV reverse transcriptase (Applied Biosystems). […] The Sense oligonucleotides contain Not I sites and the antisense oligonucleotides contain Sac II sites. Both restriction sites are indicated by underlined nucleotide. […] For PCR amplification of Or83b, Vent polymerase (New England Biolabs) is used with the following conditions: about 95° C., about 5 min for about 1 cycle; about 95° C., about 30 sec; and about 70° C., about 90 sec for about 40 cycles; and about 70° C., about 10 min for about 1 cycle. For PCR amplification of Or43a, the Failsafe PCR premix selection kit (Epicentre Technologies) is used with the following conditions: about 95° C., about 5 mill for about 1 cycle; about 95° C., about 30 sec; about 60° C., about 30 sec and about 70° C., about 90 sec for about 50 cycles; and about 70° C., about 10 min for about 1 cycle. […] The PCR products are digested with Sac II and Not I, gel purified and ligated into pAC 5.1/N5 His B (Invitrogen). Inserts are sequenced on both strands by automated fluorescent sequencing (Vanderbilt Cancer Center).
# (§4) To address whether Or83b receptor and Or43a receptor contain a specific binding site for tyramine, membranes expressing Or83b receptor or Or43a receptor are prepared from cells expressing either receptor, as described above, and used for competitive binding with ^3H-tyramine. The binding assay protocol is exactly as described for cells expressing TyrR, as described above.
# as §1, §2
# [3] = test system: Drosophila melanogaster Or43a olfactory receptor, SEQ ID NO: 4; experiment: Interaction of plant essential oils with Or43a receptor binding site (3H-tyramine); conditions: membranes, FIGS. 16, 17, 19-21
# Protocol: as §3, §4, §1, §2
# [4] = Day 0, time on treated surface of up to about 300 seconds
# [5] = Day 0, test up to about 300 seconds
# T1 sequence (P81917 whole entry L154V): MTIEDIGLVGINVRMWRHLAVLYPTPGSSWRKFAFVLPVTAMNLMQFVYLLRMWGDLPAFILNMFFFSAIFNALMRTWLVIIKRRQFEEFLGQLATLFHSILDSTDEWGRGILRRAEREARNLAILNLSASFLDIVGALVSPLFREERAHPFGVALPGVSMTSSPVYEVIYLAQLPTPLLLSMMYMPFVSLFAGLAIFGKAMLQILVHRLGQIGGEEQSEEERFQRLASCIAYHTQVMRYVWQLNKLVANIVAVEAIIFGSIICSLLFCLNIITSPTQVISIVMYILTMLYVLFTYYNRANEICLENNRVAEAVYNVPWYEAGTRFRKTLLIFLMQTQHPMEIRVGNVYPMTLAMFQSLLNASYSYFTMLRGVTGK
Compound,sec. on T surface (farm ants; [4]) [s],change in intracellular Ca^2+ levels (340/380 fluorescence ratio) (Or43a receptor),interaction with the olfactory receptors [1],"Repellency %, R % (farm ants; Day 0) [%]","Repellency %, R % (farm ants; Day 1) [%]",sec. on T surface (farm ants; Day 1),interaction with the olfactory receptor [2],interaction with the olfactory receptor [3],repellency (farm ants),sec. on T surface (farm ants; [5]) [s],"sec. on T surface (farm ants; Day 1, test up to about 300 seconds)"
lindenol [listing 1 of 2 here],144.2,calcium mobilization,interact with the olfactory receptors,–,–,–,–,–,–,–,–
C=CC(C)(CCC=C(C)C)OC(=O)c1ccccc1N (stereo not drawn) [linalyl anthranilate],46.2,calcium mobilization,interact with the olfactory receptors,69.2,30.7,104.6 s,interact,interact,–,–,–
C=CC(C)(O)CCC=C(C)C (stereo not drawn) [linalool],59.0,calcium mobilization,interact with the olfactory receptors,60.7,25.9,111.2 s,interact,interact,–,–,–
Cc1ccc(C(C)C)cc1O [carvacrol],–,calcium mobilization,interact with the olfactory receptors,–,–,–,interact,interact,display repellency,–,–
CC1=CCC2CC1C2(C)C (stereo not drawn) [α-pinene],77.4,calcium mobilization,interact with the olfactory receptors,48.4,07.2,139.2 s,interact,interact,–,–,–
terpinene 900 [listing 1 of 2 here],–,–,–,–,–,–,interact,interact,–,–,–
C=C(C)[C@@H]1CC=C(CO)CC1 [perillyl alcohol],–,calcium mobilization,–,–,–,–,–,–,–,–,–
C=C(C)[C@H]1CC=C(C)CC1 [d-limonene],55.7,calcium mobilization,interact with the olfactory receptors,62.9,–,136.2 s and 136.4 s and 133.6 s,interact,interact,–,55.7,136.2 s and 136.4 s and 133.6 s
terpinene 900 [listing 2 of 2 here],–,calcium mobilization,interact with the olfactory receptors,–,–,–,–,–,–,–,–
CC(C)[C@]12CC(=O)[C@H](C)[C@H]1C2 [α-thujone],–,calcium mobilization,interact with the olfactory receptors,–,–,–,interact,interact,display repellency,–,–
OCc1ccc2c(c1)OCO2 [piperonyl alcohol],–,calcium mobilization,interact with the olfactory receptors,–,–,–,interact,interact,–,–,–
CC1=CCC(C(C)(C)O)CC1 (stereo not drawn) [α-terpineol],109.6,–,interact with the olfactory receptors,26.9,–,–,interact,interact,–,–,–
O=Cc1ccc2c(c1)OCO2 [piperonal],93.6,decreases the intracellular Ca^2+ levels,interact with the olfactory receptors,37.6,16.1,125.8 s,interact,interact,–,–,–
C=C1CCC2(C(C)C)CC12 (stereo not drawn) [sabinene],–,calcium mobilization,interact with the olfactory receptors,–,–,–,interact,interact,display repellency,–,–
NCc1ccc2c(c1)OCO2 [piperonyl amine],77.6,calcium mobilization,interact with the olfactory receptors,48.3,25.9,111.2 s,interact,interact,–,–,–
lindenol [listing 2 of 2 here],–,–,–,04.0,–,–,interact,interact,–,144.2,–
C=C[C@H]1C[N@@]2CC[C@H]1C[C@H]2[C@H](O)c1ccnc2ccc(OC)cc12 [quinine],–,calcium mobilization,–,–,–,–,–,–,–,–,–
CCOC(=O)c1ccccc1C(=O)OCC [diethyl phthalate],–,–,interact with the olfactory receptors,–,–,–,interact,interact,–,–,–
l-carvone,–,calcium mobilization,–,–,–,–,–,–,–,–,–
C=C(C)[C@H]1CC=C(C)C(=O)C1 [d-carvone],–,calcium mobilization,–,–,–,–,–,–,–,–,–
Cc1ccc(C(C)C)cc1 [p-cymene],86.2,calcium mobilization,interact with the olfactory receptors,42.5,10.9,133.6 s,interact,interact,–,–,–
O=C1C=CC(=O)C=C1 [quinone],–,–,interact with the olfactory receptors,–,–,–,interact,interact,–,–,–
C/C=C/c1ccc(OC)cc1 [t-anethole],–,–,interact with the olfactory receptors,–,–,–,interact,interact,–,–,–

# Source: patent publication US20080075796A1, “Compositions and Methods for Controlling Insects” (TyraTech, Inc., priority 2003, published 2008)
